This is an account of results in PubChem BioAssay (NCI).

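Following 48 hours of exposure in 96-well plates, responses at five concentrations were used to interpolate endpoints linearly. TGI is the concentration that stops growth completely.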

Some test systems named below: NCI-H522 lung; CAKI-1 renal; SK-MEL-28 melanoma; COLO 205 colon; UACC-62 melanoma; OVCAR-4 ovarian; SR leukemia; T-47D breast; SN12C renal; RXF 393 renal.
What all share (experiment): inhibition of tumour cell growth, NCI panel, 48 h

Consider `Cc1c(Cl)c2ccccc2n1S(=O)(=O)c1ccccc1`, for which the TGI with NCI-H522 lung was 67.1 µM; in the assay with CAKI-1 renal, over 100 µM; in the assay on SK-MEL-28 melanoma it was over 100 µM; with COLO 205 colon, over 100 µM; in the assay on UACC-62 melanoma it was over 100 µM; in the assay on OVCAR-4 ovarian, over 100 µM. In addition, the TGI in the assay with SR leukemia was over 100 µM.
For `C[n+]1c(-c2ccc(/C=N/NC(=N)N/N=C/c3ccc(-c4cn5cc(Cl)ccc5[n+]4C)cc3)cc2)cn2cc(Cl)ccc21`, the TGI in the assay with NCI-H522 lung, with T-47D breast, in the assay with SK-MEL-28 melanoma, in the assay with COLO 205 colon, in the assay on SN12C renal and with OVCAR-4 ovarian was over 100 µM in each case. Besides, the TGI in the assay on SR leukemia is over 100 µM.
As for `CC[C@]12C=CCN3CC[C@@]4(c5cc(Br)c(OC)cc5N(C)[C@H]4[C@@](O)(C(=O)NN)[C@@H]1O)[C@@H]32`, the TGI in the assay with NCI-H522 lung, with CAKI-1 renal, with T-47D breast, in the assay with SK-MEL-28 melanoma, with COLO 205 colon and in the assay with SN12C renal was over 100 µM throughout. Further, the TGI was over 100 µM in the assay with UACC-62 melanoma, 99.2 µM in the assay on RXF 393 renal and over 100 µM with OVCAR-4 ovarian.
Take `CC(C)(C)N=NNc1cn(C2OC(CO)C(O)C2O)c(=O)[nH]c1=O` (centres undefined): the TGI in the assay with NCI-H522 lung, in the assay with CAKI-1 renal, in the assay on SK-MEL-28 melanoma, in the assay on COLO 205 colon, with SN12C renal and in the assay with UACC-62 melanoma was over 100 µM each time. Also, the TGI with RXF 393 renal was over 100 µM; in the assay with SR leukemia, 50.8 µM.
Take `CN1CCCC2(CCCc3ccccc32)C1` (centres undefined): the TGI with NCI-H522 lung, with CAKI-1 renal, with SK-MEL-28 melanoma, with COLO 205 colon, with SN12C renal and in the assay with UACC-62 melanoma was over 100 µM in each case. Further, the TGI in the assay on OVCAR-4 ovarian and in the assay on SR leukemia was over 100 µM throughout.
Take `CCc1cc(Cc2cc(Cl)c(NC(=O)C(=O)C3NC(=O)NC3=O)c(CC)c2)cc(Cl)c1NC(=O)C(=O)C1NC(=O)NC1=O` (centres undefined): the TGI in the assay on CAKI-1 renal was over 100 µM; with SK-MEL-28 melanoma, over 100 µM; with COLO 205 colon, over 100 µM; in the assay on SN12C renal it was over 100 µM; with UACC-62 melanoma it was over 100 µM; in the assay with RXF 393 renal it was 59.9 µM. Moreover, the TGI in the assay with OVCAR-4 ovarian and in the assay on SR leukemia was over 100 µM each time.
In the case of `Cc1ccc(S(=O)(=O)N/N=C(\c2nc3ccc(Cl)cc3[nH]c2=O)C(O)c2cccc([N+](=O)[O-])c2)cc1` (centres undefined), the TGI in the assay on NCI-H522 lung, with CAKI-1 renal, in the assay on SK-MEL-28 melanoma, with COLO 205 colon, in the assay on SN12C renal and in the assay on UACC-62 melanoma was over 100 µM throughout. The TGI in the assay on RXF 393 renal, with OVCAR-4 ovarian and with SR leukemia was over 100 µM throughout.
`CCOC(=O)c1cc(-c2cc(OC)c(OC)c([N+](=O)[O-])c2)c([N+](=O)[O-])n1C`: the TGI in the assay on NCI-H522 lung, in the assay on SN12C renal, in the assay with UACC-62 melanoma, in the assay on RXF 393 renal, with OVCAR-4 ovarian and in the assay on SR leukemia was over 10 µM throughout.
On to `CCN(CC)CC1CCCCN1CC(=O)N1c2ccccc2NC(=O)CC1C` (centres undefined), for which the TGI in the assay with NCI-H522 lung, in the assay on CAKI-1 renal, in the assay with T-47D breast, in the assay with SK-MEL-28 melanoma, with COLO 205 colon and in the assay on SN12C renal was over 100 µM each time. The TGI in the assay with RXF 393 renal and with OVCAR-4 ovarian was over 100 µM in each case.
Turning to `Clc1ccc(SC(/C=C/NNC2=NC(c3ccccc3)C(c3ccccc3)=NN2)c2ccccc2)cc1` (centres undefined), the TGI was 73.7 µM in the assay on NCI-H522 lung; 54.1 µM with CAKI-1 renal; 69.2 µM in the assay with SK-MEL-28 melanoma; 45.6 µM in the assay on COLO 205 colon; over 100 µM in the assay with SN12C renal; 85.3 µM in the assay with UACC-62 melanoma. In addition, the TGI in the assay on OVCAR-4 ovarian is 68.2 µM.
Take `COc1ccc(-c2cc(=O)c3cc4c(cc3[nH]2)OCO4)cc1OC`: the TGI in the assay with NCI-H522 lung, with CAKI-1 renal, with SK-MEL-28 melanoma, in the assay on COLO 205 colon, in the assay with SN12C renal and with UACC-62 melanoma was over 100 µM throughout. Also, the TGI in the assay on RXF 393 renal, with OVCAR-4 ovarian and in the assay with SR leukemia was over 100 µM each time.
For `O=CN1CCN(C(=O)c2ccc(Cl)cc2Cl)C1=S`, the TGI was 46.8 µM in the assay with NCI-H522 lung; over 100 µM with CAKI-1 renal; over 100 µM with T-47D breast; over 100 µM in the assay with SK-MEL-28 melanoma; over 100 µM in the assay with COLO 205 colon; over 100 µM in the assay on SN12C renal. Further, the TGI in the assay with UACC-62 melanoma, in the assay with RXF 393 renal and in the assay with OVCAR-4 ovarian was over 100 µM each time.
`O=c1[nH]c(=O)n(C2OC(COP(=O)(O)OP(=O)(O)OC3OC(CO)C(O)C(O)C3O)C(O)C2O)cc1F` (centres undefined): the TGI in the assay on NCI-H522 lung was 7.75 µM; in the assay with CAKI-1 renal, 18.3 µM; in the assay on SK-MEL-28 melanoma it was over 100 µM; in the assay on COLO 205 colon it was 7.14 µM; with SN12C renal it was over 100 µM; in the assay on UACC-62 melanoma, 3.16 µM. Moreover, the TGI in the assay on RXF 393 renal was 0.529 µM; in the assay with OVCAR-4 ovarian, 7.25 µM; with SR leukemia, over 21.6 µM.
On to `O=S(=O)(CCBr)CCBr`, for which the TGI came to 3.11 µM in the assay on NCI-H522 lung; 16.4 µM in the assay with CAKI-1 renal; 8.61 µM with SK-MEL-28 melanoma; 12.7 µM with COLO 205 colon; 21.8 µM in the assay on SN12C renal; 11 µM in the assay on UACC-62 melanoma. Further, the TGI in the assay with RXF 393 renal worked out at 5.88 µM; in the assay on OVCAR-4 ovarian, 22.5 µM.
As to `Cc1cnc2sn(-c3ccc(Oc4ccccc4)cc3)c(=O)c2c1`, the TGI in the assay on NCI-H522 lung worked out at 25.3 µM; in the assay on T-47D breast, 37.7 µM; in the assay with SK-MEL-28 melanoma it was 33.3 µM; with COLO 205 colon, 47.1 µM; in the assay with SN12C renal it was 43 µM; in the assay with UACC-62 melanoma, 30.7 µM. Moreover, the figures for the TGI with OVCAR-4 ovarian and with SR leukemia were 32.9 µM and 44 µM, respectively.
`O=C(c1ccc(Cl)cc1)c1ccc(OCCCOc2ccc(C(=O)c3ccc(Cl)cc3)cc2)cc1`: the TGI in the assay on NCI-H522 lung, in the assay on CAKI-1 renal, in the assay with SK-MEL-28 melanoma, in the assay on COLO 205 colon, in the assay with SN12C renal and in the assay with UACC-62 melanoma was over 100 µM throughout. Also, the TGI with RXF 393 renal, in the assay with OVCAR-4 ovarian and in the assay on SR leukemia was over 100 µM each time.
